Measured values from DBAASP.
Converted amounts (≈) assume the structure as drawn. “And” between values parts separate entries of the source, which are not always exact repeats. Equal entries are not always repeated.

Experiments:
Assay in all cases: ≥ marks a high value that may be exact or a test limit, other limits are often not marked, values filed in µg/mL are converted to µM
Bacillus megaterium Bm11 = test system: Bacillus megaterium Bm11
Candida albicans = test system: Candida albicans
Cryptococcus neoformans = test system: Cryptococcus neoformans
Enterococcus faecium = test system: Enterococcus faecium
[1] = test system: Escherichia coli ATCC 25922
Escherichia coli ML-35 = test system: Escherichia coli ML-35
[2] = test system: Escherichia coli O18:K1:H7 Bort
[3] = test system: Salmonella enterica subsp. enterica serovar Typhimurium ATCC 14028
[4] = test system: Serratia marcescens ATCC 8100
Serratia marcescens = test system: Serratia marcescens
[5] = test system: Staphylococcus aureus ATCC 25923
Staphylococcus aureus = test system: Staphylococcus aureus
[6] = test system: Staphylococcus epidermidis ATCC 12228
Streptococcus agalactiae = test system: Streptococcus agalactiae
Aureobasidium pullulans = test system: Aureobasidium pullulans
Bacillus megaterium = test system: Bacillus megaterium
[7] = test system: Bacillus subtilis ATCC 23857
[8] = test system: Candida albicans ATCC 10231
[9] = test system: Corynebacterium glutamicum ATCC 13032
Micrococcus luteus = test system: Micrococcus luteus
[10] = test system: Pseudomonas aeruginosa ATCC 27853
[11] = test system: Staphylococcus aureus ATCC 9144
Bacillus subtilis C971 = test system: Bacillus subtilis C971
[12] = test system: Corynebacterium xerosis C875
[13] = test system: Enterococcus faecalis C625
Escherichia coli DC2 = test system: Escherichia coli DC2
Escherichia coli UB1005 = test system: Escherichia coli UB1005
[14] = test system: Pseudomonas aeruginosa H187
[15] = test system: Pseudomonas aeruginosa H188
[16] = test system: Salmonella typhimurium C587
[17] = test system: Salmonella typhimurium C610
[18] = test system: Staphylococcus aureus SAP 0017
[19] = test system: Staphylococcus epidermidis C621
Aspergillus fumigatus = test system: Aspergillus fumigatus
Bibersteinia trehalosi = test system: Bibersteinia trehalosi
[20] = test system: Corynebacterium pseudotuberculosis ATCC 19410
Klebsiella pneumoniae = test system: Klebsiella pneumoniae
[21] = test system: Mannheimia haemolytica Serovar 1
[22] = test system: Mannheimia haemolytica Serovar 2
[23] = test system: Mannheimia haemolytica Serovar 6
Pasteurella multocida = test system: Pasteurella multocida
[24] = test system: Pseudomonas aeruginosa PAO1
[25] = test system: Salmonella enterica subsp. arizonae
[26] = test system: Bacillus subtilis MTCC 2763
[27] = test system: Escherichia coli MTCC 723
[28] = test system: Pseudomonas aeruginosa MTCC 2295
[29] = test system: Staphylococcus aureus ATCC BAA-1720
[30] = test system: Staphylococcus aureus MTCC 3160
[31] = test system: Staphylococcus epidermidis ATCC 51625

Compound `CC[C@H](C)[C@H](NC(=O)[C@H](CCCCN)NC(=O)[C@H](CCCN=C(N)N)NC(=O)CNC(=O)[C@H](CC(C)C)NC(=O)[C@H](CO)NC(=O)[C@H](CCCN=C(N)N)NC(=O)[C@H](CC(C)C)NC(=O)CNC(=O)CN)C(=O)N[C@@H](CC(C)C)C(=O)N[C@@H](CCCN=C(N)N)C(=O)N[C@@H](C)C(=O)N[C@@H](Cc1c[nH]c2ccccc12)C(=O)N[C@@H](CCCCN)C(=O)N[C@@H](CCCCN)C(=O)N[C@@H](Cc1ccc(O)cc1)C(=O)NCC(=O)N1CCC[C@H]1C(=O)N[C@@H](CCC(N)=O)C(=O)N[C@@H](C)C(=O)N[C@H](C(=O)N1CCC[C@H]1C(=O)N[C@@H](C)C(=O)N[C@H](C(=O)N[C@@H](CCCN=C(N)N)C(=O)N[C@@H](CCC(N)=O)C(N)=O)[C@@H](C)O)[C@@H](C)O` [GGLRSLGRKILRAWKKYGPQATPATRQ] has an MIC (Bacillus megaterium Bm11) of 2 µM (≈ 6.02 µg/mL), an MIC (Candida albicans) of 8 µM (≈ 24.1 µg/mL) and an MIC (Cryptococcus neoformans) of 4 µM (≈ 12 µg/mL). For the same compound, the MIC (Enterococcus faecium) was 22.6 µM (≈ 68.1 µg/mL), the MIC [1] was 1 µM (≈ 3.01 µg/mL) and the MIC (Escherichia coli ML-35) was 0.5 µM (≈ 1.5 µg/mL). For the same compound, the MIC [2] was 2 µM (≈ 6.02 µg/mL), the MIC [3] was 1 µM (≈ 3.01 µg/mL) and the MIC [4] was 4 µM (≈ 12 µg/mL). The MIC (Serratia marcescens) was 4 µM (≈ 12 µg/mL), the MIC [5] was 8 µM (≈ 24.1 µg/mL) and the MIC (Staphylococcus aureus) was > 64 µM and 32 µM. It also gave an MIC [6] of 2 µM (≈ 6.02 µg/mL) and an MIC (Streptococcus agalactiae) of 1.41 µM (≈ 4.26 µg/mL).
Work on `C[C@H](NC(=O)[C@H](CCCN=C(N)N)NC(=O)[C@H](Cc1c[nH]c2ccccc12)NC(=O)[C@H](Cc1c[nH]c2ccccc12)NC(=O)[C@H](Cc1c[nH]c2ccccc12)NC(=O)[C@@H]1CCCN1C(=O)[C@H](CCCN=C(N)N)NC(=O)[C@H](CCCN=C(N)N)NC(=O)CN)C(=O)N[C@@H](CCCN=C(N)N)C(N)=O` [GRRPWWWRAR] yielded an MIC (Aureobasidium pullulans) of 21.9 µM (≈ 31.3 µg/mL), an MIC (Bacillus megaterium) of 0.701 µM (≈ 0.999 µg/mL) and an MIC [7] of 2.73 µM (≈ 3.9 µg/mL). The MIC [8] was 21.9 µM (≈ 31.3 µg/mL), the MIC [9] was 1.4 µM (≈ 2 µg/mL) and the MIC [1] was 5.47 µM (≈ 7.79 µg/mL). The MIC (Micrococcus luteus) was 2.73 µM (≈ 3.9 µg/mL), the MIC [10] was 21.9 µM (≈ 31.3 µg/mL) and the MIC [11] was 5.47 µM (≈ 7.79 µg/mL).
With `CC[C@H](C)[C@H](NC(=O)[C@H](C)NC(=O)[C@H](CCCCN)NC(=O)[C@H](CC(C)C)NC(=O)[C@H](C)NC(=O)[C@@H](NC(=O)[C@H](Cc1cnc[nH]1)NC(=O)[C@H](CC(C)C)NC(=O)[C@@H](NC(=O)[C@@H](NC(=O)[C@H](CCCCN)NC(=O)[C@@H](NC(=O)[C@H](C)NC(=O)CNC(=O)[C@H](CCCCN)NC(=O)[C@H](Cc1ccccc1)NC(=O)[C@@H](NC(=O)[C@H](CCCCN)NC(=O)[C@H](CC(C)C)NC(=O)[C@H](Cc1ccccc1)NC(=O)[C@H](CO)NC(=O)[C@H](CCCCN)NC(=O)[C@H](Cc1c[nH]c2ccccc12)NC(=O)[C@H](CCCCN)NC(C)=O)[C@@H](C)O)C(C)C)[C@@H](C)O)C(C)C)[C@@H](C)O)C(=O)N[C@@H](CO)C(=O)N[C@@H](CO)C(N)=O` [KWKSFLKTFKGAVKTVLHTALKAISS] the MIC (Bacillus subtilis C971) was 0.692 µM (≈ 2.03 µg/mL), the MIC [12] was 0.692 µM (≈ 2.03 µg/mL) and the MIC [13] was 4.39 µM (≈ 12.9 µg/mL). The MIC (Escherichia coli DC2) was 0.865 µM (≈ 2.54 µg/mL), the MIC (Escherichia coli UB1005) was 1.73 µM (≈ 5.07 µg/mL) and the MIC [14] was 1.38 µM (≈ 4.06 µg/mL). It also gave an MIC [15] of 3.49 µM (≈ 10.2 µg/mL), an MIC [16] of 4.39 µM (≈ 12.9 µg/mL) and an MIC [17] of 1.11 µM (≈ 3.25 µg/mL). It also gave an MIC [5] of 2.77 µM (≈ 8.11 µg/mL), an MIC [18] of 1.73 µM (≈ 5.07 µg/mL) and an MIC [19] of 1.38 µM (≈ 4.06 µg/mL).
In the case of `CC[C@H](C)[C@H](NC(=O)[C@H](Cc1cnc[nH]1)NC(=O)[C@@H](NC(=O)[C@@H](NC(=O)[C@H](CCCCN)NC(=O)[C@H](CCCN=C(N)N)NC(=O)[C@@H](NC(=O)[C@@H](NC(=O)[C@H](CCCN=C(N)N)NC(=O)[C@H](CCCN=C(N)N)NC(=O)[C@@H](N)CC(C)C)[C@@H](C)CC)[C@@H](C)CC)[C@@H](C)CC)[C@@H](C)CC)C(=O)N[C@H](C(=O)N[C@@H](CCCCN)C(N)=O)[C@@H](C)CC` [LRRIIRKIIHIIK], the MIC (Aspergillus fumigatus) is reported as 4.96 µM (≈ 8.3 µg/mL), the MIC (Bibersteinia trehalosi) is reported as 2.99 µM (≈ 5 µg/mL) and the MIC [20] is reported as 12 µM (≈ 20 µg/mL). For the same compound, the MIC (Klebsiella pneumoniae) was 4.01 µM (≈ 6.7 µg/mL), the MIC [21] was 1.97 µM (≈ 3.3 µg/mL) and the MIC [22] was 1.02 µM (≈ 1.7 µg/mL). The MIC [23] was 2.51 µM (≈ 4.2 µg/mL), the MIC (Pasteurella multocida) was 2.99 µM (≈ 5 µg/mL) and the MIC [24] was 1.02 µM (≈ 1.7 µg/mL). It also gave an MIC [25] of 12 µM (≈ 20 µg/mL) and an MIC (Staphylococcus aureus) of 5.98 µM (≈ 9.99 µg/mL).
Work on `NC(=O)[C@H](CCCN=C(N)N)NC(=O)[C@H](Cc1c[nH]c2ccccc12)NC(=O)[C@H](Cc1c[nH]c2ccccc12)NC(=O)[C@H](CCCN=C(N)N)NC(=O)[C@@H](N)Cc1c[nH]c2ccccc12` [WRWWR] yielded an MIC [26] of no less than 56.2 µM, an MIC [27] of no less than 45 µM and an MIC [28] of no less than 78.7 µM. The MIC [29] was 19.7 µM (≈ 17.5 µg/mL), the MIC [30] was 16.9 µM (≈ 15 µg/mL) and the MIC [31] was 22.5 µM (≈ 20 µg/mL).
